Holding throughout (type): functional
Common to all, as to set-up: scale not given: the % may be the effect or the level left

The subject of assay [1] is Mus musculus. Description: Ex-vivo inhibition of BTK in C57BL/6J mouse assessed as anti-mouse IgD antibody stimulated BCR mediated CD69 level in whole blood isolated from 30 mg/kg, po bid treated mouse measured after 2 hrs post first dose by flow cytometry relative to control. (In general: Flow cytometry measures light scatter and fluorescence of single cells or particles in a stream.)

Assay [2] relates to Mus musculus. Description: Ex-vivo inhibition of BTK in C57BL/6J mouse assessed as anti-mouse IgD antibody stimulated BCR mediated CD69 level in whole blood isolated from 100 mg/kg, po bid treated mouse measured after 24 hrs post first dose by flow cytometry relative to control.
Assay [3] has as its system Mus musculus. Put plainly: Ex-vivo inhibition of BTK in C57BL/6J mouse assessed as anti-mouse IgD antibody stimulated BCR mediated CD69 level in whole blood isolated from 10 to 100 mg/kg, po bid treated mouse measured after 2 hrs post first dose by flow cytometry relative to control.

Bounds are passed on as bounds.

As for `CCN1CCN(Cc2ccc(-c3cc4c(-c5cccc(N6CCOc7cc(C8CC8)cc(F)c7C6=O)c5CO)ccnc4[nH]3)nc2)CC1`, the Activity in assay [1] is given as 45%; in assay [2] it was 83%. Turning to `O=C1c2c(F)cc(C3CC3)cc2OCCN1c1cccc(-c2ccnc3[nH]c(C4=CCN(C5COC5)CC4)cc23)c1CO`, the Activity in assay [3] is given as over 90%.

(Values after ChEMBL document CHEMBL4177534, “Discovery and evaluation of 1H-pyrrolo[2,3-b]pyridine based selective and reversible small molecule BTK inhibitors for the treatment of rheumatoid arthritis” (Bioorg Med Chem Lett, 2017).)
